SMILES strings stand for the structures. ± gives the expanded uncertainty stated by the source.

One may read the viscosity as the resistance of a fluid to flow. For orientation: mass density means mass per unit of volume.

The conditions of one data set: 303.15 K; 101.33 kPa; Liquid; transient hot wire.
With `COS(=O)(=O)[O-].C[n+]1ccccc1` [1-methylpyridinium methylsulfate], the thermal conductivity came out at 0.204 ± 0.002 W/m/K.
Still for that read-out and setting: then `OCC(O)CO` [glycerol], with 0.284 ± 0.002 W/m/K; and `CCCC[P+](C)(CCCC)CCCC.[Cl-]` [methyltributylphosphonium chloride], with 0.158 ± 0.002 W/m/K.
On the same count and under the same terms, then `CCCC[P+](C)(CCCC)CCCC.COS(=O)(=O)[O-]` [tributylmethylphosphonium methyl sulfate], with 0.159 ± 0.002 W/m/K.

Still in this data set, the particulars now being: 313.15 K; 101.33 kPa; Liquid; Capillary tube (Ostwald / Ubbelohde) method.
Consider `CCCC[P+](C)(CCCC)CCCC.O=S(=O)([N-]S(=O)(=O)C(F)(F)F)C(F)(F)F`, for which the viscosity is given as 87.7 ± 1.3 mPa·s.
The same measure, in the same setting: in the case of `CCCCn1cc[n+](C)c1.COS(=O)(=O)[O-]` [1-butyl-3-methylimidazolium methyl sulfate] it was 91.7 ± 1.4 mPa·s.
The same measure, in the same setting: then `COS(=O)(=O)[O-].C[n+]1ccccc1` [1-methylpyridinium methylsulfate], with 46 ± 0.6 mPa·s; and `CCCC[P+](C)(CCCC)CCCC.[Cl-]` [methyltributylphosphonium chloride], with 1914 ± 120 mPa·s; and `CCCC[P+](C)(CCCC)CCCC.COS(=O)(=O)[O-]` [tributylmethylphosphonium methyl sulfate], with 339.2 ± 11 mPa·s.

Still in this data set, the particulars now being: 313.15 K; 101.33 kPa; Liquid; Direct current cell with electrodes.
In the case of `CCCC[P+](C)(CCCC)CCCC.O=S(=O)([N-]S(=O)(=O)C(F)(F)F)C(F)(F)F`, the electrical conductivity came to 0.123 ± 0.012 S/m.
Same read-out and setting: then `CCCCn1cc[n+](C)c1.COS(=O)(=O)[O-]` [1-butyl-3-methylimidazolium methyl sulfate], with 0.279 ± 0.028 S/m; and `COS(=O)(=O)[O-].C[n+]1ccccc1` [1-methylpyridinium methylsulfate], with 0.683 ± 0.068 S/m.
On the same count and under the same terms, then `CCCC[P+](C)(CCCC)CCCC.[Cl-]` [methyltributylphosphonium chloride], with 0.0131 ± 0.0013 S/m; and `CCCC[P+](C)(CCCC)CCCC.COS(=O)(=O)[O-]` [tributylmethylphosphonium methyl sulfate], with 0.0278 ± 0.0028 S/m.

The data set is the same for the next values; noted with them: 313.15 K; 101.33 kPa; Liquid; Vibrating tube method.
For the molecule `CCCC[P+](C)(CCCC)CCCC.O=S(=O)([N-]S(=O)(=O)C(F)(F)F)C(F)(F)F`, the mass density turned out to be 1242.07 ± 2 kg/m3.
Same read-out and setting: in the case of `CCCCn1cc[n+](C)c1.COS(=O)(=O)[O-]` [1-butyl-3-methylimidazolium methyl sulfate] it was 1198.79 ± 2 kg/m3.
Same read-out and setting: then `COS(=O)(=O)[O-].C[n+]1ccccc1` [1-methylpyridinium methylsulfate], with 1334.5 ± 2.1 kg/m3; and `CCCC[P+](C)(CCCC)CCCC.[Cl-]` [methyltributylphosphonium chloride], with 948.08 ± 2 kg/m3; and `CCCC[P+](C)(CCCC)CCCC.COS(=O)(=O)[O-]` [tributylmethylphosphonium methyl sulfate], with 1048.13 ± 2 kg/m3.

Still in this data set, the particulars now being: 313.15 K; 101.33 kPa; Liquid; transient hot wire.
Turning to `CCCC[P+](C)(CCCC)CCCC.O=S(=O)([N-]S(=O)(=O)C(F)(F)F)C(F)(F)F`, the thermal conductivity was 0.122 ± 0.002 W/m/K.
On the same count and under the same terms, in the case of `CCCCn1cc[n+](C)c1.COS(=O)(=O)[O-]` [1-butyl-3-methylimidazolium methyl sulfate] it was 0.176 ± 0.002 W/m/K.
Same read-out and setting: then `COS(=O)(=O)[O-].C[n+]1ccccc1` [1-methylpyridinium methylsulfate], with 0.204 ± 0.002 W/m/K; and `OCC(O)CO` [glycerol], with 0.284 ± 0.002 W/m/K.
The same measure, in the same setting: then `CCCC[P+](C)(CCCC)CCCC.[Cl-]` [methyltributylphosphonium chloride], with 0.157 ± 0.002 W/m/K.
On to `CCCC[P+](C)(CCCC)CCCC.COS(=O)(=O)[O-]` [tributylmethylphosphonium methyl sulfate], for which the thermal conductivity worked out at 0.159 ± 0.002 W/m/K.

The same data set, now with this note: 323.15 K; 101.33 kPa; Liquid; Capillary tube (Ostwald / Ubbelohde) method.
For `CCCC[P+](C)(CCCC)CCCC.O=S(=O)([N-]S(=O)(=O)C(F)(F)F)C(F)(F)F`, the viscosity stood at 54.7 ± 0.7 mPa·s.
The same measure, in the same setting: then `CCCCn1cc[n+](C)c1.COS(=O)(=O)[O-]` [1-butyl-3-methylimidazolium methyl sulfate], with 59.6 ± 0.7 mPa·s.
`COS(=O)(=O)[O-].C[n+]1ccccc1` [1-methylpyridinium methylsulfate]: the viscosity is listed as 32 ± 0.4 mPa·s.
Same read-out and setting: in the case of `CCCC[P+](C)(CCCC)CCCC.[Cl-]` [methyltributylphosphonium chloride] it was 859 ± 42 mPa·s; in that of `CCCC[P+](C)(CCCC)CCCC.COS(=O)(=O)[O-]` [tributylmethylphosphonium methyl sulfate], 189.4 ± 4.6 mPa·s.

Still in this data set, the particulars now being: 323.15 K; 101.33 kPa; Liquid; Direct current cell with electrodes.
As to `CCCC[P+](C)(CCCC)CCCC.O=S(=O)([N-]S(=O)(=O)C(F)(F)F)C(F)(F)F`, the electrical conductivity turned out to be 0.187 ± 0.019 S/m.
On the same count and under the same terms, in the case of `CCCCn1cc[n+](C)c1.COS(=O)(=O)[O-]` [1-butyl-3-methylimidazolium methyl sulfate] it was 0.426 ± 0.043 S/m; in that of `COS(=O)(=O)[O-].C[n+]1ccccc1` [1-methylpyridinium methylsulfate], 0.986 ± 0.099 S/m.
As to `CCCC[P+](C)(CCCC)CCCC.[Cl-]` [methyltributylphosphonium chloride], the electrical conductivity came out at 0.029 ± 0.0029 S/m.
Same read-out and setting: then `CCCC[P+](C)(CCCC)CCCC.COS(=O)(=O)[O-]` [tributylmethylphosphonium methyl sulfate], with 0.0483 ± 0.0048 S/m.

The same data set, now with this note: 323.15 K; 101.33 kPa; Liquid; Vibrating tube method.
With `CCCC[P+](C)(CCCC)CCCC.O=S(=O)([N-]S(=O)(=O)C(F)(F)F)C(F)(F)F`, the mass density is 1233.84 ± 2 kg/m3.
Still for that read-out and setting: in the case of `CCCCn1cc[n+](C)c1.COS(=O)(=O)[O-]` [1-butyl-3-methylimidazolium methyl sulfate] it was 1192.26 ± 2 kg/m3; in that of `COS(=O)(=O)[O-].C[n+]1ccccc1` [1-methylpyridinium methylsulfate], 1327.8 ± 2.1 kg/m3; in that of `CCCC[P+](C)(CCCC)CCCC.[Cl-]` [methyltributylphosphonium chloride], 942.74 ± 2 kg/m3.
Same read-out and setting: in the case of `CCCC[P+](C)(CCCC)CCCC.COS(=O)(=O)[O-]` [tributylmethylphosphonium methyl sulfate] it was 1042.02 ± 2 kg/m3.

Still in this data set, the particulars now being: 323.15 K; 101.33 kPa; Liquid; transient hot wire.
For the molecule `CCCC[P+](C)(CCCC)CCCC.O=S(=O)([N-]S(=O)(=O)C(F)(F)F)C(F)(F)F`, the thermal conductivity was found to be 0.123 ± 0.002 W/m/K.
Same read-out and setting: then `CCCCn1cc[n+](C)c1.COS(=O)(=O)[O-]` [1-butyl-3-methylimidazolium methyl sulfate], with 0.174 ± 0.002 W/m/K; and `COS(=O)(=O)[O-].C[n+]1ccccc1` [1-methylpyridinium methylsulfate], with 0.203 ± 0.002 W/m/K.

(Values after the NIST ThermoML archive (doi:10.1016/j.tca.2018.04.007).)
